According to US7345058B2, “Pyrazoles” (Hoffmann-La Roche Inc., priority 2005, dated 2008):

Target: Purified human HSD1 (Homo sapiens, UniProt P28845)
Test: In vitro inhibition of 11β-HSD1 (time-resolved fluorescence, cortisone to cortisol)
Format: biochemical
Details: purified human HSD1, cortisone substrate, incubated at 37° C. for 30 min
Description: Purified human HSD1 was diluted in 50 mM Tris-HCl, 100 mM NaCl, 0.1 mg/ml BSA, 0.02% Lubrol, 20 mM MgCl2, 10 mM glucose 6-phosphate, 0.4 mM NADPH, 60 U/ml glucose 6-phosphate dehydrogenase to a concentration of 1.5 ug/ml (Enzyme Solution). Cortisone (100 uM) in DMSO was diluted to 1 uM with 50 mM Tris-HCl, 100 mM NaCl (Substrate Solution). Testing compounds (40 uM) in DMSO were diluted 3 fold in series in DMSO and further diluted 20 fold in Substrate Solution. Enzyme Solution (10 ul/well) was added into 384 well microtiter plates followed by diluted compound solutions (10 ul/well) and mixed well. Samples were then incubated at 37° C. for 30 min. EDTA/biotin-cortisol solution (10 ul/well) in 28 mM EDTA, 100 nM biotin-cortisol, 50 mM Tris-HCl, 100 mM NaCl was then added followed by 5 ul/well of anti-cortisol antibody (3.2 ug/ml) in 50 mM Tris-HCl, 100 mM NaCl, 0.1 mg/ml BSA and the solution was incubated at 37° C. for 30 min. Five ul per well of Eu-conjugated anti-mouse IgG (16 nM) and APC-conjugated streptavidin (160 nM) in 50 mM Tris-HCl, 100 mM NaCl, 0.1 mg/ml BSA were added and the solution was incubated at room temperature for 2 hours. Signals were quantitated by reading time-resolved fluorescence on a Victor 5 reader (Wallac).
Percent inhibition of HSD 1 activity by an agent at various concentrations was calculated by the formula % Inhibition=100*[1−(Fs−Fb)/(Ft−Fb)], where: • Fs is the fluorescence signal of the sample which included the agent, • Fb is the fluorescence signal in the absence of HSD1 and agent, • Ft is the fluorescence signal in the presence of HSD1, but no agent.
The inhibitory activities of test compounds were determined by the IC50s, or the concentration of compound that gave 50% inhibition.

Sequence of Purified human HSD1 (P28845 whole entry): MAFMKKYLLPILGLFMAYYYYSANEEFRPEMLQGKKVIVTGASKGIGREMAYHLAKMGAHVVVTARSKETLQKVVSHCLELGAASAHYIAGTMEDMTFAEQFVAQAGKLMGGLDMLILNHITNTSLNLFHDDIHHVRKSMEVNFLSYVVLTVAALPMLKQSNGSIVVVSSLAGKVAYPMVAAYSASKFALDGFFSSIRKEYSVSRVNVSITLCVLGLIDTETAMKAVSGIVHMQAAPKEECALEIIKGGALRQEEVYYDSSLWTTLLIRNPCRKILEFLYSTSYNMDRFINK

IC50 [µM] | Compound
0.195 | Cn1ncc(C(=O)N2CCCC3CCCCC32)c1-c1ccc(C(F)(F)F)c(Cl)c1 (stereo not shown) [Example 52, [5-(3-Chloro-4-tri-fluoromethyl-phenyl)-1-meth-yl-1H-pyra-zol-4-yl]-(octa-hydro-quinolin-1-yl)-meth-anone]
0.7 | Cn1ncc(C(=O)N2CCCC3CCCCC32)c1-c1cccc(O)c1 (stereo not shown) [Example 59, [5-(3-Hydroxy-phe-nyl)-1-methyl-1H-pyra-zol-4-yl]-(octa-hydro-quinolin-1-yl)-meth-anone]
1.48 | Cn1ncc(C(=O)N2CCCC(Cc3ccccc3)C2)c1-n1cccc1 (stereo not shown) [Example 106, (3-Benzyl-piperidin-1-yl)-(1-meth-yl-5-pyrrol-1-yl-1H-py-razol-4-yl)-methanone]
0.058 | Cn1ncc(C(=O)NC2CCCCCCC2)c1-n1cccc1 [Example 96, 1-Methyl-5-pyrrol-1-yl-1H-py-razole-4-carboxylic acidcyclooctylamide]
0.552 | Cn1ncc(C(=O)N2CCCC3CCCCC32)c1-c1ccc([N+](=O)[O-])cc1 (stereo not shown) [Example 55, [1-Methyl-5-(4-ni-tro-phenyl)-1H-pyra-zol-4-yl]-(octa-hydro-quinolin-1-yl)-methanone]
0.021 | CCOc1ccc(-c2c(C(=O)N3CCCC4CCCCC43)cnn2C)c(Cl)c1 (stereo not shown) [Example 82, [5-(2-Chloro-4-eth-oxy-phenyl)-1-meth-yl-1H-pyrazol-4-yl]-(octa-hydro-quinolin-1-yl)-meth-anone]
0.26 | CCC1CCCCN1C(=O)c1cnn(C)c1-c1ccccc1 (stereo not shown) [Example 107, (2-Ethyl-piperidin-1-yl)-(1-meth-yl-5-phe-nyl-1H-pyrazol-4-yl)-methanone]
0.121 | Cn1ncc(C(=O)N2CCCC3CCCCC32)c1-c1ccc(CO)cc1 (stereo not shown) [Example 67, [5-(4-Hydroxy-methyl-phenyl)-1-meth-yl-1H-pyra-zol-4-yl]-(octa-hydro-quinolin-1-yl)-meth-anone]

The next lines start with the compound.

Compound | IC50 [µM]
Cn1ncc(C(=O)N2CCCC3CCCCC32)c1-c1cccc(C=O)c1 (stereo not shown) [Example 21, 3-[2-Methyl-4-(octa-hydro-quinoline-1-carbo-nyl)-2H-pyra-zol-3-yl]-benzaldehyde] | 1
Cn1ncc(C(=O)N2CCCC3CCCCC32)c1-c1cnc2ccccc2c1 (stereo not shown) [Example 19] | 0.189
Cn1ncc(C(=O)N2CCC(Cl)C3CCCCC32)c1-c1ccccc1 (stereo not shown) [Example 36] | 0.6
CSc1ccc(-c2c(C(=O)N3CCCC4CCCCC43)cnn2C)cc1 (stereo not shown) [Example 33] | 0.078
Cc1c(Cl)cccc1-c1c(C(=O)N2CCCC3CCCCC32)cnn1C (stereo not shown) [Example 46, [5-(3-Chloro-2-meth-yl-phenyl)-1-meth-yl-1H-pyrazol-4-yl]-(octa-hydro-quinolin-1-yl)-meth-anone] | 0.038
Cn1ncc(C(=O)N2CCCC3CCCCC32)c1-c1ccc(F)c(Cl)c1 (stereo not shown) [Example 39, [5-(3-Chloro-4-fluoro-phenyl)-1-meth-yl-1H-pyrazol-4-yl]-(octa-hydro-quinolin-1-yl)-meth-anone] | 0.208
Cn1ncc(C(=O)N2CCCC3CCCCC32)c1-c1cccc(C(F)(F)F)c1 (stereo not shown) [Example 49, [1-Methyl-5-(3-tri-fluoromethyl-phenyl)-1H-py-razol-4-yl]-(octa-hydro-quinolin-1-yl)-meth-anone] | 0.16
CC(C)c1cccc(-c2c(C(=O)N3CCCC4CCCCC43)cnn2C)c1 (stereo not shown) [Example 12, [5-(3-Isopropyl-phenyl)-1-methyl-1H-py-razol-4-yl]-(octa-hydro-quinolin-1-yl)-meth-anone] | 0.059
